Source: patent publication US6989401B2, “Sulfonic acid derivatives of hydroxamic acids and their use as medicinal products” (Mitsubishi Pharma Corporation, priority 2000, dated 2006)
Read-outs that look alike come from different tables or passages of the source.

Assays:
[1] = tested on: LPS in rat peritonitis (CLP; cecal ligation and puncture) model; test: Inhibitory effect on LPS that increases in rat peritonitis (CLP) model; format: in vivo; conditions: iv, continuous tail vein infusion 2.5 mg/kg/hr
Protocol: Rat peritonitis (CLP; cecal ligation and puncture) model was prepared according to the method of Wichterman et al. (J. Surg. Res. 29, 189-201 <1980>). That is, a rat fasted overnight was anesthetized with ether, and a midline laparotomy was performed and the cecum was exposed. The cecum was ligated with a 3-0 silk thread at its base and perforated two times with an 18 G injection needle. The cecum was gently squeezed to extrude feces, which were spread around the abdomen, and the sectioned part was sutured. The animal was fixed in a Borrmann cage, and physiological saline or drug solution ([…]) was continuously given from the tail vein at an administration rate of 2.5 mg/kg/hr with an infusion pump (22 M, Harvard, 5 mL/kg/hr as a dose).
After 6 hr of the CLP treatment, the animal was sacrificed with carbonic acid gas. The abdominal cavity was washed by injecting phosphate buffered saline (PBS; 37° C., 10 mL) and the abdominal cavity washing containing ascites (PLF; peritoneal lavage fluid) was recovered. The recovery weight of the obtained PLF was measured, and PLF was centrifuged (1500 rpm for 5 min, 4° C.) to recover supernatant. The blood taken from the heart was centrifuged (3000 rpm for 10 min, 4° C.) using a serum separation tube, and the serum was recovered. The concentration of LPS in the abdominal cavity and serum was measured using Toxinometer MT-285 (Waco Pure Chemical Industries) preheated to 37° C., after diluting the supernatant and serum of the recovered PLF 10^5-fold and 10^2-fold, respectively, with sterile distilled water, and adding 200 μL thereof to a limulus reagent (LAL ES, Waco Pure Chemical Industries). The amount of LPS per abdominal cavity was calculated from amount of recovered abdominal cavity washing (PLF)×LPS concentration of PLF.
The LPS inhibitory ratio of the compound was calculated as the ratio of LPS concentration of the compound administration group to LPS concentration of the physiological saline administration group.

[2] = tested on: LPS in E. coli culture supernatant (E. coli NIHJ JC-2 strain); test: Inhibitory effect on LPS in E. coli culture supernatant; format: cell-based; conditions: 24 hr; for inhibitory effect of compound on LPS in E. coli culture supernatant, relative ratio: relative ratio to the inhibitory ratio of the compound of Example 1 as 1.0, compound 100 μM
Protocol: One platinum loop of E. coli NIHJ JC-2 strain was inoculated into a test tube containing heart infusion broth (HIB, 5 mL) and cultured for about 24 hr. The bacterial culture broth was washed three times by centrifugation (3000 rpm, 15 min, 20° C., TOMY Seiko, RL-131) using 10 mL of fresh HIB medium for one cycle of washing. The washed bacteria were prepared to an about 10^7 colony forming unit (CFU)/mL with a fresh HIB medium, and 0.2 mL of the prepared bacterial suspension was inoculated into an Erlenmeyer flask containing a fresh HIB medium (18.8 mL) (i.e., to final bacterial concentration of about 10^5 CFU/mL). A solution (1 mL) of each compound prepared to a concentration of 2 mM (final concentration of compound 100 μM) was added to the culture broth containing the bacteria. Using a shaker (RGR-1 type, manufactured by IWASHIYA, Ltd.), shake culture was conducted at 37° C., and 2 mL of culture broth after 24 hr was sampled. The sampled culture broth was filtered (DISMIC, 0.45 μm, Advantech Toyo) and diluted 10^5-fold with sterile distilled water. The resulting suspension (200 μL) was added to a limulus reagent (LAL ES, Wako Pure Chemical Industries) and LPS concentration was measured using Toxinometer MT-285 (Wako Pure Chemical Industries) preheated to 37° C.
The LPS inhibitory ratio of the compound was calculated as a ratio of the LPS concentration of the compound addition group relative to the LPS concentration of the compound non-addition group. […] The inhibitory ratio of each compound is shown in the following in Table 1 as a relative ratio to the inhibitory ratio of the compound of Example 1 as 1.0.

[3] = peritoneal lavage fluid 6 hr after CLP, read-out: LPS inhibitory ratio (%) in abdominal cavity
[4] = serum 6 hr after CLP, read-out: LPS inhibitory ratio (%) in blood

Structure (SMILES)	inhibition in vivo at 2.5 mg/kg/h [1, 3] [%]	inhibition in vivo at 2.5 mg/kg/h [1, 4] [%]	inhibitory effect of compound on LPS in E. coli culture supernatant, relative ratio [2]	LPS inhibitory ratio ([2]; final concentration of compound 100 μM, shake culture 37° C., limulus reagent)	inhibitory effect of compound on LPS in E. coli culture supernatant, relative ratio ([2]; sodium salt)
CC(C)C[C@@H](C(=O)N[C@@H](Cc1ccccc1)C(=O)NCS(=O)(=O)[O-])C(CN1C(=O)c2ccccc2C1=O)C(=O)NO.[Na+] (single isomer, unassigned) [Example 15, 5-methyl-3(R)-[2-phenyl-1(S)-(sulfomethylcarbamoyl)ethylcarbamoyl]-2(R or S)-phthalimidomethylhexanohydroxamic acid sodium salt]	70.3	68.2	1.05	–	–
CNC(=O)[C@H](Cc1ccc(OCCCCS(=O)(=O)[O-])cc1)NC(=O)[C@H](CC(C)C)C(CN1C(=O)c2ccccc2C1=O)C(=O)NO.[Na+] (single isomer, unassigned) [Example 11, 5-methyl-3(R)-{1(S)-methylcarbamoyl-2-[4-(4-sulfobutoxy)phenyl]ethylcarbamoyl}-2(R or S)-phthalimidomethylhexanohydroxamic acid sodium salt]	5.5	36.2	0.74	–	–
CNC(=O)[C@H](Cc1ccc(OCCCS(=O)(=O)[O-])cc1)NC(=O)[C@H](CC(C)C)C(CN1C(=O)c2ccccc2C1=O)C(=O)NO.[Na+] (single isomer, unassigned) [Example 1, 5-methyl-3(R)-{1(S)-methylcarbamoyl-2-[4-(3-sulfopropoxy)phenyl]ethylcarbamoyl}-2(R or S)-phthalimidomethylhexanohydroxamic acid sodium salt]	88.3	79.9	–	46.5-65.8%	1.0
CC(C)C[C@@H](C(=O)N[C@@H](Cc1ccccc1)C(=O)NCCCS(=O)(=O)[O-])C(CN1C(=O)c2ccccc2C1=O)C(=O)NO.[Na+] (single isomer, unassigned) [Example 19, 5-methyl-3(R)-[2-phenyl-1(S)-(3-sulfopropylcarbamoyl)ethylcarbamoyl]-2(R or S)-phthalimidomethylhexanohydroxamic acid sodium salt]	89.6	67.8	0.67	–	–
